Assay results published in US12648918B2, “Use of parabulin for targeting protozoan tubulin for the inhibition of protozoan replication” (Paul Scherrer Institut, priority 2020, dated 2026).

Experiments:
human fibroblast cells = assay: toxicity assay on cultured human fibroblast cells; format: cell-based; details: sub-confluent (proliferating) fibroblasts, 72 hours, 25 μM
Protocol: To assess the potential of parabulin as a bona fide anti-parasitic agent, its effects were evaluated on cultures of human cells and growth of the apicomplexan parasite Toxoplasma gondii within human cells. […] CA4 has well-defined anti-mitotic activity due to its disruption of vertebrate MTs.
FIG. 4(A) depicts a toxicity assay showing the effect of parabulin and CA4 on cultured human fibroblast cells.

Toxoplasma gondii [1] = assay: T. gondii plaque assay; format: cell-based; details: seven days
Protocol: (§1) In order to assess the efficacy of parabulin, T. gondii tachyzoite replication was followed 36 h after addition of parabulin. […] A T. gondii plaque assay was used to determine the concentration at which parasite replication is reduced by half (EC50 value). When confluent fibroblast monolayers were infected with wild-type tachyzoites and left to grow for seven days, lytic parasite growth created visible holes in the vertebrate fibroblast monolayer. Both the plaque numbers and sizes were reduced by parabulin treatment.

T. thermophila = assay: turbidity based T. thermophila cell growth inhibition assay; parameters: species or system Tetrahymena thermophila; details: parabulin 50 μM (FIG. 2D)
Excerpt: Zoom outs showing differences in the Taxane-, Pironetin—and Colchicine-sites between T. thermophila (light grey) and H. sapiens (wheat) tubulin. The three distinct zones of the Colchicine site are highlighted by colored transparent ovals. Amino acid residue differences between human and protozoa tubulin are indicated. […] FIG. 2(C) represents the chemical structures of CA4 and parabulin. The two CA4 rings, denoted A and B, are highlighted as well as the linker (yellow). FIG. 2(D) is a plot showing the time course of T. thermophila cell growth in the presence of CA4 (20 μM) or parabulin (50 μM; error bars corresponding to the standard deviation of triplicate measurements).
To assess the activity of any putative anti parasitic compound, a turbidity based T. thermophila cell growth inhibition assay was put in place in parallel to the efforts to solve T. thermophila MT and tubulin structures.
(§2) To test if parabulin is able to bind to tubulin, its activity was assessed in vitro on dynamic MTs using our TIRF microscopy reconstitution assay. In contrast to the dynamic periods of growth and shrinkage observed for T. thermophila MTs (FIG. 1C), the addition of parabulin led to a striking reduction in the numbers of growth events (FIG. 3A).

[2] = biological target: T1, T. thermophila MTs (Tt-MT) (Tetrahymena thermophila, UniProt P41351+P41352); assay: TIRF microscopy MT dynamics reconstitution assay; format: biochemical
T1 construct: it was decided to isolate tubulin dimers from a protozoa organism; from tissue; host or cells: Tetrahymena thermophila cells (native tubulin isolated from the ciliate)
T1 sequence (P41352 whole entry): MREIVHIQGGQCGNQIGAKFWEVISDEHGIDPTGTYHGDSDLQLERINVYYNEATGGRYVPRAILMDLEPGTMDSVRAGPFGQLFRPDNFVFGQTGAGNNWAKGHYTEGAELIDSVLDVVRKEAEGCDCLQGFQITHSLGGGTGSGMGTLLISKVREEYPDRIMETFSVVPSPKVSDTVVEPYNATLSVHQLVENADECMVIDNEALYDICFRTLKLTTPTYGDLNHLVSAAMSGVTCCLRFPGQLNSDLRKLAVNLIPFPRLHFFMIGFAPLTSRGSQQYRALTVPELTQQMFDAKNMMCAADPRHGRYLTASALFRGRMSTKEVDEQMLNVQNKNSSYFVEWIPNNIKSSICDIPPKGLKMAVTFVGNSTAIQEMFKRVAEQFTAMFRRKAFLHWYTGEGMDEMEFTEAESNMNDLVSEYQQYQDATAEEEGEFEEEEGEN
T1 sequence (P41351 whole entry): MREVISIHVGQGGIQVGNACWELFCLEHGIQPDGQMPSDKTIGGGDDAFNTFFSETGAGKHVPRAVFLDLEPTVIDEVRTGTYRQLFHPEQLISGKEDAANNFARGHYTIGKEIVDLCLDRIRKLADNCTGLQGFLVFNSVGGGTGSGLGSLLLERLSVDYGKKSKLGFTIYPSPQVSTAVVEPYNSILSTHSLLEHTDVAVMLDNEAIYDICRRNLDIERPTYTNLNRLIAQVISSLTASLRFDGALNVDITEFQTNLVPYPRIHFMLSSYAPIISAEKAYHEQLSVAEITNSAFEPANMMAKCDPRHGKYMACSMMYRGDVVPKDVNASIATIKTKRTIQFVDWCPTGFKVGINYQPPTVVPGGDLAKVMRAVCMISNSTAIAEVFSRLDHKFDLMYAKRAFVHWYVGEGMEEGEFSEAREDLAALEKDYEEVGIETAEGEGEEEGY
Excerpt: FIG. 1(D) is a plot of Tt-MT plus-end growth rates as a function of tubulin concentration. Error bars represent the mean +/−95% CI. […] Left: outside view. The α- and β-tubulin monomers are shown in ribbon representation and colored in dark and light gray, respectively. […] Right: tubulin dimer models fitted into a sliced, transparent and zoomed-in view. The paclitaxel structure in stick representation is highlighted in magenta. Lateral contacts between protofilaments are indicated in blue (H2-S3 in α2 and β2), red (H1-S2 in α2 and β2) and green (M loop in α1 and β1).
as §2
FIG. 3(A) is a plot showing the quantification of the Tt-MT growth events in TIRF microscopy MT dynamics reconstitution assays in the presence of the indicated drugs. Error bars represent the mean +/−95% CI. […] Error bars represent the mean +/−95% CI. […] FIG. 3(C) represents the Tt-MT length in the presence of the indicated drugs (40 μM). Error bars represent the mean +/−95% CI.
The average number of growth events per 10-minute movie decreased from 41.3 to 3.8 even though the number of MT seeds immobilized on the cover slide was similar.

Toxoplasma gondii [3] = assay: T. gondii tachyzoite replication; format: cell-based; details: 36 h after addition; controls above 96% eight cell-stage
Protocol: as §1

[4] = drugs 40 μM, one-way ANOVA vs DMSO

Compound	cell survival (human fibroblast cells)	EC50 (Toxoplasma gondii [1]; Toxoplasma gondii, 168 h, confluent fibroblast monolayers, wild-type tachyzoites, read-out: EC50 (plaque area relative to control))	plaque numbers and sizes (Toxoplasma gondii [1])	T. thermophila cell growth (T. thermophila)	average number of growth events per 10-minute movie ([2]; Tt-MT, control (DMSO) 41.3, similar number of MT seeds)	Tt-MT growth length vs control [2, 4]	Tt-MT growth rate vs control [2, 4]	eight cell-stage parasites (replication) (Toxoplasma gondii [3])
COc1ccc(/C=C\c2cc(OC)c(OC)c(OC)c2)cc1O [CA4, Combretastatin A4, reference compound]	46%	–	–	–	–	–	–	–
COc1ccc(C=CC(=O)NCc2cc(OC)c(OC)c(OC)c2)cc1OC [parabulin, 3-(3,4-dimethoxyphenyl)-N-[(3,4,5-trimethoxyphenyl)methyl]prop-2-enamide]	99%	6.5 µM	reduced	inhibited T. thermophila cell growth	3.8	no significant differences	no significant differences	no eight cell-stage observed
